Source: ChEMBL document CHEMBL5244273, “Tuberculosis: An Overview of the Immunogenic Response, Disease Progression, and Medicinal Chemistry Efforts in the Last Decade toward the Development of Potential Drugs for Extensively Drug-Resistant Tuberculosis Strains” (J Med Chem, 2021)
≈ marks a conversion by molar mass, not a printed value.

What was measured:
[1] = tested on: Mycobacterium tuberculosis; assay: Antimycobacterial activity against Mycobacterium tuberculosis H37Rv; assay type: functional
[2] = Cytotoxicity against Chinese hamster CHO-K1 cells assessed as inhibition of cell growth; assay type: toxicity, cell-based, Cricetulus griseus
[3] = Selectivity index, ratio of IC50 for cytotoxicity against Chinese hamster CHO-K1 cells to MIC for antimycobacterial activity against Mycobacterium tuberculosis H37Rv; assay type: toxicity, cell-based; settings: read-out: Selectivity Index
[4] = tested on: Mycobacterium tuberculosis; assay: Antitubercular activity against Mycobacterium tuberculosis H37Rv by resazurin microtitre assay; assay type: functional
[5] = Cytotoxicity against HEK293T cells assessed as reduction in cell viability; assay type: toxicity, cell-based, HEK-293T; settings: human
[6] = tested on: Mycobacterium tuberculosis; assay: Antitubercular activity against active stage of Mycobacterium tuberculosis H37Ra; assay type: functional
[7] = tested on: Mycobacterium tuberculosis; assay: Antitubercular activity against dormant stage of Mycobacterium tuberculosis H37Ra; assay type: functional
[8] = tested on: HeLa; assay: Cytotoxicity against human HeLa cells assessed as cell growth inhibition; assay type: functional
[9] = tested on: MCF7; assay: Cytotoxicity against human MCF7 cells assessed as cell growth inhibition; assay type: functional
[10] = Cytotoxicity against HUVEC cells assessed as cell growth inhibition; assay type: toxicity, cell-based; settings: human
[11] = Selectivity index, ratio of GI50 for cytotoxicity against human HeLa cells to MIC for antitubercular activity against active stage of Mycobacterium tuberculosis H37Ra; assay type: toxicity, cell-based; settings: read-out: Selectivity Index
[12] = Selectivity index, ratio of GI50 for cytotoxicity against human HeLa cells to MIC for antitubercular activity against dormant stage of Mycobacterium tuberculosis H37Ra; assay type: toxicity, cell-based; settings: read-out: Selectivity Index
[13] = Selectivity index, ratio of GI50 for cytotoxicity against human MCF7 cells to MIC for antitubercular activity against active stage of Mycobacterium tuberculosis H37Ra; assay type: toxicity, cell-based; settings: read-out: Selectivity Index
[14] = Selectivity index, ratio of GI50 for cytotoxicity against human MCF7 cells to MIC for antitubercular activity against dormant stage of Mycobacterium tuberculosis H37Ra; assay type: toxicity, cell-based; settings: read-out: Selectivity Index
[15] = Selectivity index, ratio of GI50 for cytotoxicity against HUVEC cells to MIC for antitubercular activity against active stage of Mycobacterium tuberculosis H37Ra; assay type: toxicity, cell-based; settings: human, read-out: Selectivity Index
[16] = Selectivity index, ratio of GI50 for cytotoxicity against HUVEC cells to MIC for antitubercular activity against dormant stage of Mycobacterium tuberculosis H37Ra; assay type: toxicity, cell-based; settings: human, read-out: Selectivity Index
[17] = tested on: Mycobacterium tuberculosis; assay: Antimycobacterial activity against Mycobacterium tuberculosis H37Rv […]; assay type: functional
[18] = tested on: Mycobacterium tuberculosis; assay: Antimycobacterial activity against Mycobacterium tuberculosis H37Rv assessed as inhibition of bacterial growth incubated for 5 days by alamar blue assay; assay type: functional; settings: 120 h, time 5 day
[19] = tested on: Mycobacterium tuberculosis; assay: Antitubercular activity against Mycobacterium tuberculosis H37Rv assessed as inhibition of bacterial growth by alamar blue assay; assay type: functional

## S=c1[nH]nc(-c2ccccc2)o1
[1]
  MIC: 2.2 µg/mL (≈ 12.3 µM)
[2]
  IC50: 33.3 µg/mL (≈ 187 µM)
[3]
  selectivity ratio: 15.1

## CCN(CC)CCOc1c(C(=O)OC)c2c3c(oc2c2ccccc12)C(=O)c1ccccc1C3=O
[4]
  MIC50: 0.19 µg/mL (≈ 0.403 µM)

## Oc1ccc(-c2nnc(S)o2)cc1
[1]
  MIC: 0.6 µg/mL (≈ 3.09 µM)
[3]
  selectivity ratio: 39.6

## Cc1nc(C)c(-c2nnc(S)o2)s1
[1]
  MIC: 1.3 µg/mL (≈ 6.1 µM)
[2]
  IC50: 21.7 µg/mL (≈ 102 µM)

## CC(=O)N1/C(=C/c2ccc(NC(C)C)cc2)C(=O)c2ccccc21
[1]
  MIC90: > 20 µM
  MIC99: > 20 µM
[5]
  CC50: 19 µM

## CC(=O)N1/C(=C/c2cccc(-c3cnc4ccccc4c3)c2)C(=O)c2ccccc21
[1]
  MIC90: 2.65 µM (≈ 1.03 µg/mL)
  MIC99: 3.13 µM (≈ 1.22 µg/mL)
[5]
  CC50: 14 µM

## O=C(OCC(F)(F)F)c1ccsc1NC(=O)[C@@H]1CCCN1
[6]
  MIC: 8.23 µg/mL (≈ 25.5 µM)
[7]
  MIC: 1.08 µg/mL (≈ 3.35 µM)
[8]
  GI50: 109 µg/mL (≈ 339 µM)
[9]
  GI50: 89.7 µg/mL (≈ 278 µM)
[10]
  GI50: > 250 µg/mL
[11]
  selectivity ratio: 13.3
[12]
  selectivity ratio: 101
[13]
  selectivity ratio: 10.9
[14]
  selectivity ratio: 83
[15]
  selectivity ratio: > 30.4
[16]
  selectivity ratio: > 231

## CC(=O)N1/C(=C/c2ccc(-c3ccc(C)cc3)cc2)C(=O)c2ccccc21
[1]
  MIC90: 2.71 µM (≈ 0.958 µg/mL)
  MIC99: 4.37 µM (≈ 1.54 µg/mL)
[17]
  MIC: 14.8 µM (≈ 5.23 µg/mL)

## CC(=O)N1/C(=C/c2ccc(-c3ccccc3)cc2)C(=O)c2ccccc21
[1]
  MIC90: 1.32 µM (≈ 0.448 µg/mL)
  MIC99: 2.29 µM (≈ 0.777 µg/mL)
[17]
  MIC: 12.3 µM (≈ 4.17 µg/mL)

## CC(=O)N1/C(=C/c2cccc(-c3ccc(Cl)cc3)c2)C(=O)c2ccccc21
[1]
  MIC90: 6.44 µM (≈ 2.41 µg/mL)
  MIC99: 7.85 µM (≈ 2.93 µg/mL)
[5]
  CC50: 4 µM

## Sc1nnc(-c2cc3ccccc3[nH]2)o1
[1]
  MIC: 1.3 µg/mL (≈ 5.98 µM)
[2]
  IC50: 21.6 µg/mL (≈ 99.4 µM)
[3]
  selectivity ratio: 16.6

## Sc1nnc(-c2ccc(I)cc2)o1
[1]
  MIC: 0.9 µg/mL (≈ 2.96 µM)
[2]
  IC50: 46.7 µg/mL (≈ 154 µM)
[3]
  selectivity ratio: 51.8

## O=C(OCC(Cl)(Cl)Cl)c1ccsc1NC(=O)[C@@H]1CCCN1
[6]
  MIC: 20.4 µg/mL (≈ 54.9 µM)
[7]
  MIC: 16.1 µg/mL (≈ 43.3 µM)
[8]
  GI50: > 250 µg/mL
[9]
  GI50: > 250 µg/mL
[10]
  GI50: > 250 µg/mL
[11]
  selectivity ratio: > 12.3
[12]
  selectivity ratio: > 15.5
[13]
  selectivity ratio: > 12.3
[14]
  selectivity ratio: > 15.5
[15]
  selectivity ratio: > 12.3
[16]
  selectivity ratio: > 15.5

## CC(=O)N1/C(=C/c2ccc(Br)cc2)C(=O)c2ccccc21
[1]
  MIC90: 0.31 µM (≈ 0.106 µg/mL)
  MIC99: 0.37 µM (≈ 0.127 µg/mL)
[17]
  MIC: 15.2 µM (≈ 5.2 µg/mL)

## O=C1CC[C@@H](COC(=O)c2ccsc2NC(=O)[C@@H]2CCCN2)N1
[6]
  MIC: 9.46 µg/mL (≈ 28 µM)
[7]
  MIC: 6.67 µg/mL (≈ 19.8 µM)
[8]
  GI50: 191 µg/mL (≈ 566 µM)
[9]
  GI50: 148 µg/mL (≈ 437 µM)
[10]
  GI50: 88.6 µg/mL (≈ 263 µM)
[11]
  selectivity ratio: 20.2
[12]
  selectivity ratio: 28.6
[13]
  selectivity ratio: 15.6
[14]
  selectivity ratio: 22.1
[15]
  selectivity ratio: 9.36
[16]
  selectivity ratio: 13.3

## CC(=O)N1/C(=C/c2ccc(-c3ccc(Cl)cc3)cc2)C(=O)c2ccccc21
[1]
  MIC90: 2.32 µM (≈ 0.867 µg/mL)
  MIC99: 4.05 µM (≈ 1.51 µg/mL)
[17]
  MIC: 8.37 µM (≈ 3.13 µg/mL)
[5]
  CC50: 7 µM

## CC(=O)N1/C(=C/c2ccc(-c3ccc(OC(F)(F)F)cc3)cc2)C(=O)c2ccccc21
[1]
  MIC90: 1.44 µM (≈ 0.61 µg/mL)
  MIC99: 3.19 µM (≈ 1.35 µg/mL)
[5]
  CC50: 8 µM

## CC(=O)N1/C(=C/c2ccccc2)C(=O)c2cc(-c3ccccc3)ccc21
[1]
  MIC90: 1.24 µM (≈ 0.421 µg/mL)
  MIC99: 1.39 µM (≈ 0.472 µg/mL)
[5]
  CC50: 12 µM

## Sc1nnc(-c2cc(Br)co2)o1
[1]
  MIC: 1.5 µg/mL (≈ 6.07 µM)
[2]
  IC50: 35.5 µg/mL (≈ 144 µM)
[3]
  selectivity ratio: 25.6

## CC(=O)N1/C(=C/c2ccc(-c3ccc(F)cc3)cc2)C(=O)c2ccccc21
[1]
  MIC90: 1.26 µM (≈ 0.45 µg/mL)
  MIC99: 1.98 µM (≈ 0.708 µg/mL)
[5]
  CC50: 9 µM

## Sc1nnc(-c2cc3ccccc3o2)o1
[1]
  MIC: 1.3 µg/mL (≈ 5.96 µM)
[2]
  IC50: 34.4 µg/mL (≈ 158 µM)
[3]
  selectivity ratio: 26.4

## CC[C@@H](CO)NCCN[C@@H](CC)CO [ETHAMBUTOL]
[4]
  MIC: 0.78 µg/mL (≈ 3.82 µM)

## NC(=O)c1cnccn1 [PYRAZINAMIDE]
[1]
  MIC: 3.12 µg/mL (≈ 25.3 µM)
[18]
  MIC: 3.12 µg/mL (≈ 25.3 µM)
[4]
  MIC: > 200 µg/mL
[19]
  MIC: 3.12 µg/mL (≈ 25.4 µM)

## CN[C@@H]1[C@H](O[C@H]2[C@H](O[C@H]3[C@H](O)[C@@H](O)[C@H](N=C(N)N)[C@@H](O)[C@@H]3N=C(N)N)O[C@@H](C)[C@]2(O)C=O)O[C@@H](CO)[C@H](O)[C@H]1O [STREPTOMYCIN]
[1]
  MIC: 6.25 µg/mL (≈ 10.7 µM)
[18]
  MIC: 6.25 µg/mL (≈ 10.7 µM)
[4]
  MIC: 0.19 µg/mL (≈ 0.327 µM)
[19]
  MIC: 6.25 µg/mL (≈ 10.7 µM)
